ChEMBL document CHEMBL1641589, “Phosphoramidate pronucleotides of cytostatic 6-aryl-7-deazapurine ribonucleosides” (Bioorg Med Chem, 2011)
pIC50: −log10 of the molar value.

Experiments:
[1] = Chemical stability of the compound assessed as specific activity per ug at 30 uM after 30 mins in presence of purified carboxylesterase 2; type: physicochemical; conditions: isolated protein, 0.5 h
[2] = Chemical stability of the compound assessed as specific activity per ug at 30 uM after 30 mins in presence of purified carboxylesterase 1; type: physicochemical; conditions: isolated protein, 0.5 h
[3] = Chemical stability of the compound assessed as specific activity per ug at 30 uM after 30 mins in presence of purified cathepsin A; type: physicochemical; conditions: 0.5 h
HepG2 = experiment: Cytotoxicity against human HepG2 cells after 3 days by XTT assay; type: functional, cell-based; conditions: HepG2, 72 h
[4] = Cytotoxicity against human HeLaS3 cells after 3 days by XTT assay; type: functional, cell-based; conditions: HeLa S3, 72 h
HL-60 = experiment: Cytotoxicity against human HL60 cells after 5 days by SRB assay; type: functional; conditions: HL-60, 120 h
CCRF-CEM [5] = experiment: Cytotoxicity against human CCRF-CEM cells after 3 days by XTT assay; type: functional, cell-based; conditions: 72 h
DU-145 = experiment: Cytotoxicity against human DU145 cells after 5 days by SRB assay; type: functional; conditions: DU-145, 120 h
[6] = Cytotoxicity against human Hs578 cells after 5 days by SRB assay; type: functional; conditions: Hs578, 120 h
NCI-H23 = experiment: Cytotoxicity against human NCI-H23 cells after 5 days by SRB assay; type: functional; conditions: NCI-H23, 120 h
HCT-116 = experiment: Cytotoxicity against human HCT116 cells after 5 days by SRB assay; type: functional; conditions: HCT-116, 120 h
CCRF-CEM [7] = experiment: Cell cycle arrest in human CCRF-CEM cells assessed as increased of cellular debris level at IC50 concentration using propidium iodide staining by flow cytometry relative to control; type: functional
CCRF-CEM [8] = experiment: Cell cycle arrest in human CCRF-CEM cells assessed as accumulation at G2/M phase at IC50 concentration using propidium iodide staining by flow cytometry relative to control; type: functional
CCRF-CEM [9] = experiment: Cell cycle arrest in human CCRF-CEM cells assessed as accumulation at S phase at IC50 concentration using propidium iodide staining by flow cytometry relative to control; type: functional
CCRF-CEM [10] = experiment: Cell cycle arrest in human CCRF-CEM cells assessed as accumulation at G1 phase at IC50 concentration using propidium iodide staining by flow cytometry relative to control; type: functional
[11] = Permeability from basolateral to apical side of human Caco2 cells at 10 uM after 60 to 120 mins by HPLC analysis; type: ADME, cell-based; conditions: Caco-2
[12] = Efflux ratio of permeability from basolateral to apical side over apical to basolateral side in human Caco2 cells at 10 uM after 60 to 120 mins by HPLC analysis; type: ADME, cell-based; conditions: Caco-2
[13] = Permeability from apical to basolateral side of human Caco2 cells at 10 uM after 60 to 120 mins by HPLC analysis; type: ADME, cell-based; conditions: Caco-2
[14] = Permeability from apical to basolateral side at 10 uM after 60 to 120 mins by HPLC analysis; type: ADME; conditions: not told

| Structure (SMILES) | Stability [1] | Stability [2] | Stability [3] | pIC50 (HepG2) | pIC50 [4] | GI50 (HL-60) | pIC50 (CCRF-CEM [5]) | GI50 (DU-145) | GI50 [6] | GI50 (NCI-H23) | GI50 (HCT-116) | Activity (CCRF-CEM [7]) | Activity (CCRF-CEM [8]) | Activity (CCRF-CEM [9]) | Activity (CCRF-CEM [10]) | Papp B→A at 10 µM [11] | efflux ratio at 10 µM [12] | Papp A→B at 10 µM [13] | Papp A→B at 10 µM [14] |
| --- | --- | --- | --- | --- | --- | --- | --- | --- | --- | --- | --- | --- | --- | --- | --- | --- | --- | --- | --- |
| COC(=O)[C@H](C)NP(=O)(OC[C@H]1O[C@@H](n2ccc3c(-c4ccco4)ncnc32)[C@H](O)[C@@H]1O)Oc1ccccc1 (stereo partly drawn) | 0 pmol/min | 86 pmol/min | 1249 pmol/min | 5.92 | 5.85 | 3.31 µM | 5.46 | 1.19 µM | 2.31 µM | 4.63 µM | 1.03 µM | – | – | – | – | – | – | – | – |
| CCOC(=O)[C@H](C)NP(=O)(OC[C@H]1O[C@@H](n2ccc3c(-c4ccco4)ncnc32)[C@H](O)[C@@H]1O)Oc1ccccc1 (stereo partly drawn) | 0 pmol/min | 149 pmol/min | 11989 pmol/min | 5.85 | 5.99 | 4.86 µM | 5.48 | 2.29 µM | 2.18 µM | 2.87 µM | 2.5 µM | 42.5% | 18.06% | 55.3% | 26.6% | – | – | – | – |
| C[C@H](NP(=O)(OC[C@H]1O[C@@H](n2ccc3c(-c4ccco4)ncnc32)[C@H](O)[C@@H]1O)Oc1ccccc1)C(=O)OCc1ccccc1 (stereo partly drawn) | 0 pmol/min | 133 pmol/min | 14727 pmol/min | 6.21 | 6.24 | 2.19 µM | 5.95 | 1.36 µM | 1.04 µM | 1.91 µM | 1.08 µM | 48.8% | 13.7% | 54.7% | 31.6% | – | – | – | – |
| COC(=O)[C@H](C)NP(=O)(OC[C@H]1O[C@@H](n2ccc3c(-c4ccoc4)ncnc32)[C@H](O)[C@@H]1O)Oc1ccccc1 (stereo partly drawn) | – | – | – | 5.44 | 5.11 | > 10 µM | < 5.00 | 3.86 µM | > 10 µM | > 10 µM | 7.95 µM | – | – | – | – | – | – | – | – |
| CCOC(=O)[C@H](C)NP(=O)(OC[C@H]1O[C@@H](n2ccc3c(-c4ccoc4)ncnc32)[C@H](O)[C@@H]1O)Oc1ccccc1 (stereo partly drawn) | – | – | – | 5.53 | 5.31 | > 10 µM | < 5.00 | 9.05 µM | 5.97 µM | 8.28 µM | 9.06 µM | – | – | – | – | – | – | – | – |
| C[C@H](NP(=O)(OC[C@H]1O[C@@H](n2ccc3c(-c4ccoc4)ncnc32)[C@H](O)[C@@H]1O)Oc1ccccc1)C(=O)OCc1ccccc1 (stereo partly drawn) | – | – | – | 5.70 | 5.88 | > 10 µM | 5.51 | 1.09 µM | 1.1 µM | 5.19 µM | 1.42 µM | 21.5% | 8.4% | 54% | 37.5% | – | – | – | – |
| COC(=O)[C@H](C)NP(=O)(OC[C@H]1O[C@@H](n2ccc3c(-c4cccs4)ncnc32)[C@H](O)[C@@H]1O)Oc1ccccc1 (stereo partly drawn) | – | – | – | 5.85 | 5.60 | > 10 µM | 5.07 | 3.23 µM | 6.59 µM | 6.79 µM | 6.22 µM | – | – | – | – | 97.5 nm/s | 13.3 | 7.4 nm/s | 351 nm/s |
| CCOC(=O)[C@H](C)NP(=O)(OC[C@H]1O[C@@H](n2ccc3c(-c4cccs4)ncnc32)[C@H](O)[C@@H]1O)Oc1ccccc1 (stereo partly drawn) | – | – | – | 5.82 | 5.23 | > 10 µM | < 5.00 | > 10 µM | 9.6 µM | 10.9 µM | > 10 µM | – | – | – | – | 96.2 nm/s | 12.7 | 7.6 nm/s | 338 nm/s |
| C[C@H](NP(=O)(OC[C@H]1O[C@@H](n2ccc3c(-c4cccs4)ncnc32)[C@H](O)[C@@H]1O)Oc1ccccc1)C(=O)OCc1ccccc1 (stereo partly drawn) | – | – | – | 6.06 | 5.81 | – | 5.68 | 0.989 µM | 1.42 µM | 5.12 µM | 0.68 µM | 49.5% | 11.5% | 57.9% | 30.7% | 132 nm/s | 12 | 11 nm/s | 299 nm/s |
| COC(=O)[C@H](C)NP(=O)(OC[C@H]1O[C@@H](n2ccc3c(-c4ccsc4)ncnc32)[C@H](O)[C@@H]1O)Oc1ccccc1 (stereo partly drawn) | 0 pmol/min | 167 pmol/min | 1496 pmol/min | < 5.00 | < 5.00 | > 10 µM | < 5.00 | > 10 µM | > 10 µM | > 10 µM | > 10 µM | – | – | – | – | – | – | – | – |
| CCOC(=O)[C@H](C)NP(=O)(OC[C@H]1O[C@@H](n2ccc3c(-c4ccsc4)ncnc32)[C@H](O)[C@@H]1O)Oc1ccccc1 (stereo partly drawn) | – | – | – | < 5.00 | < 5.00 | > 10 µM | < 5.00 | > 10 µM | > 10 µM | > 10 µM | > 10 µM | – | – | – | – | – | – | – | – |
| C[C@H](NP(=O)(OC[C@H]1O[C@@H](n2ccc3c(-c4ccsc4)ncnc32)[C@H](O)[C@@H]1O)Oc1ccccc1)C(=O)OCc1ccccc1 (stereo partly drawn) | – | – | – | 5.34 | 5.26 | > 10 µM | < 5.00 | 3.57 µM | 7.56 µM | 7.44 µM | 7.51 µM | 22.2% | 9.9% | 54.2% | 35.9% | – | – | – | – |
| COC(=O)[C@H](C)NP(=O)(OC[C@H]1O[C@@H](n2ccc3c(-c4ccccc4)ncnc32)[C@H](O)[C@@H]1O)Oc1ccccc1 (stereo partly drawn) | – | – | – | < 5.00 | < 5.00 | > 10 µM | < 5.00 | > 10 µM | > 10 µM | > 10 µM | > 10 µM | – | – | – | – | – | – | – | – |
| CCOC(=O)[C@H](C)NP(=O)(OC[C@H]1O[C@@H](n2ccc3c(-c4ccccc4)ncnc32)[C@H](O)[C@@H]1O)Oc1ccccc1 (stereo partly drawn) | – | – | – | < 5.00 | < 5.00 | > 10 µM | < 5.00 | – | > 10 µM | – | > 10 µM | – | – | – | – | – | – | – | – |
| C[C@H](NP(=O)(OC[C@H]1O[C@@H](n2ccc3c(-c4ccccc4)ncnc32)[C@H](O)[C@@H]1O)Oc1ccccc1)C(=O)OCc1ccccc1 (stereo partly drawn) | – | – | – | < 5.00 | < 5.00 | 5.65 µM | < 5.00 | – | > 10 µM | – | > 10 µM | – | – | – | – | – | – | – | – |
| COC(=O)[C@H](C)NP(=O)(OC[C@H]1O[C@@H](n2ccc3c(-c4cccc5c4oc4ccccc45)ncnc32)[C@H](O)[C@@H]1O)Oc1ccccc1 (stereo partly drawn) | – | – | – | < 5.00 | < 5.00 | > 10 µM | < 5.00 | – | > 10 µM | – | > 10 µM | – | – | – | – | – | – | – | – |
| CCOC(=O)[C@H](C)NP(=O)(OC[C@H]1O[C@@H](n2ccc3c(-c4cccc5c4oc4ccccc45)ncnc32)[C@H](O)[C@@H]1O)Oc1ccccc1 (stereo partly drawn) | – | – | – | < 5.00 | < 5.00 | > 10 µM | < 5.00 | – | > 10 µM | – | > 10 µM | – | – | – | – | – | – | – | – |
| C[C@H](NP(=O)(OC[C@H]1O[C@@H](n2ccc3c(-c4cccc5c4oc4ccccc45)ncnc32)[C@H](O)[C@@H]1O)Oc1ccccc1)C(=O)OCc1ccccc1 (stereo partly drawn) | – | – | – | < 5.00 | < 5.00 | > 10 µM | < 5.00 | – | > 10 µM | – | > 10 µM | – | – | – | – | – | – | – | – |
| OC[C@H]1O[C@@H](n2ccc3c(-c4cccc5c4oc4ccccc45)ncnc32)[C@H](O)[C@@H]1O | – | – | – | < 5.00 | < 5.00 | > 10 µM | < 5.00 | – | > 10 µM | – | > 10 µM | – | – | – | – | – | – | – | – |
| OC[C@H]1O[C@@H](n2ccc3c(-c4ccoc4)ncnc32)[C@H](O)[C@@H]1O | – | – | – | 5.76 | – | 1.5 µM | – | – | – | – | – | – | – | – | – | – | – | – | – |
| OC[C@H]1O[C@@H](n2ccc3c(-c4ccsc4)ncnc32)[C@H](O)[C@@H]1O | – | – | – | 5.49 | – | > 40 µM | – | – | – | – | – | – | – | – | – | – | – | – | – |
| OC[C@H]1O[C@@H](n2ccc3c(-c4ccco4)ncnc32)[C@H](O)[C@@H]1O | – | – | – | 6.33 | – | 0.81 µM | – | – | – | – | – | – | – | – | – | – | – | – | – |
| OC[C@H]1O[C@@H](n2ccc3c(-c4ccccc4)ncnc32)[C@H](O)[C@@H]1O | – | – | – | < 5.00 | 5.39 | – | 6.00 | 0.075 µM | 3.1 µM | – | 5.7 µM | – | – | – | – | – | – | – | – |
| OC[C@H]1O[C@@H](n2ccc3c(-c4cccs4)ncnc32)[C@H](O)[C@@H]1O | – | – | – | 5.92 | 6.54 | 1.2 µM | 5.06 | – | – | – | – | – | – | – | – | 93.1 nm/s | 5.9 | 15.7 nm/s | 341 nm/s |
